Reference: ChEMBL document CHEMBL4813944 (Eur J Med Chem, 2021)
The source made the active and inactive calls. No cut-off for these calls is given here.

Tests used:
[1] = Inhibition of glutamate-induced mitochondrial depolarization in human SH-SY5Y cells assessed as mitochondrial membrane potential at 10 uM incubated for 1 hr by JC10 dye based fluorescence analysis (reference value: 31.2 +/-4.6%); format: functional; set-up: scale not given: the % may be the effect or the level left
SH-SY5Y [2] = assay: Inhibition of glutamate-induced apoptosis in human SH-SY5Y cells assessed as caspase 3/7 activity at 10 uM incubated for 1 hr using Ac-DEVD-AMC as substrate by fluorescence analysis (reference value: 100%); format: functional; set-up: scale not given: the % may be the effect or the level left
[3] = Cytotoxicity against human SH-SY5Y cells assessed as cell viability at 1 uM measured after 24 hrs by calcein-AM staining based fluorescence analysis; settings: read-out: Activity
SH-SY5Y [4] = assay: Inhibition of Salsolinol-induced oxidative stress in human SH-SY5Y cells assessed as superoxide radical formation at 1 uM measured after 24 hrs by DHE staining based fluorescence spectrophotometry (reference value: 100%); format: functional; set-up: scale not given: the % may be the effect or the level left
SH-SY5Y [5] = assay: Neuroprotective activity against salsolinol-induced neurotoxicity in human SH-SY5Y cells assessed as cell viability at 1 uM measured after 24 hrs by calcein-AM staining based fluorescence analysis (reference value: 70.49 +/-0.51%); format: functional; settings: read-out: Activity
[6] = Cytotoxicity against human SH-SY5Y cells assessed as cell viability at 10 uM measured after 24 hrs by calcein-AM staining based fluorescence analysis; settings: read-out: Activity
SH-SY5Y [7] = assay: Neuroprotective activity against glutamate-induced neurotoxicity in human SH-SY5Y cells assessed as cell death at 10 uM measured after 24 hrs by PI staining based assay (reference value: 100%); format: functional
SH-SY5Y [8] = assay: Neuroprotective activity against salsolinol-induced neurotoxicity in human SH-SY5Y cells assessed as cell death at 10 uM measured after 24 hrs by PI staining based analysis (reference value: 100%); format: functional
SH-SY5Y [9] = assay: Inhibition of salsolinol-induced mitochondrial depolarization in human SH-SY5Y cells assessed as recovery of mitochondrial membrane potential measured after 24 hrs by JC-1 staining based flow cytometry; format: functional, cell-based
[10] = Inhibition of salsolinol-induced mPTP opening in human SH-SY5Y cells assessed as fold change in fluorescence intensity at 1 uM measured after 24 hrs by calcein AM/CoCl2 based fluorescence microscopic analysis (reference value: 0.49 +/-0.02); format: functional
SH-SY5Y [11] = assay: Neuroprotective activity against glutamate-induced neurotoxicity in human SH-SY5Y cells assessed as reduction in cell death at 0.1 to 1 uM measured after 24 hrs by PI staining based assay; format: functional; settings: dose 0.1-1 µM
SH-SY5Y [12] = assay: Inhibition of salsolinol-induced apoptosis in human SH-SY5Y cells assessed as caspase 3/7 activity at 10 uM incubated for 24 hrs using Ac-DEVD-AMC as substrate by fluorescence analysis (reference value: 100%); format: functional; set-up: scale not given: the % may be the effect or the level left
[13] = Inhibition of salsolinol-induced mitochondrial depolarization in human SH-SY5Y cells assessed as mitochondrial membrane potential at 10 uM measured after 24 hrs by JC-1 staining based flow cytometry (reference value: 45.3 +/-2.09%); format: functional; set-up: scale not given: the % may be the effect or the level left
SH-SY5Y [14] = assay: Inhibition of glutamate-induced oxidative stress in human SH-SY5Y cells assessed as superoxide radical formation at 10 uM measured after 4 hrs by DHE staining based fluorescence spectrophotometry (reference value: 100%); format: functional; set-up: scale not given: the % may be the effect or the level left
SH-SY5Y [15] = assay: Inhibition of Salsolinol-induced oxidative stress in human SH-SY5Y cells assessed as superoxide radical formation at 10 uM measured after 24 hrs by DHE staining based fluorescence spectrophotometry (reference value: 100%); format: functional; set-up: scale not given: the % may be the effect or the level left
SH-SY5Y [16] = assay: Inhibition of Salsolinol-induced oxidative stress in human SH-SY5Y cells assessed as reduction in superoxide radical formation at 1 uM measured after 24 hrs by DHE staining based fluorescence microscopy; format: functional, cell-based
SH-SY5Y [17] = assay: Inhibition of salsolinol-induced apoptosis in human SH-SY5Y cells assessed as caspase 3/7 activity at 1 uM incubated for 24 hrs using Ac-DEVD-AMC as substrate by fluorescence analysis (reference value: 100%); format: functional; set-up: scale not given: the % may be the effect or the level left
[18] = Cytotoxicity against human SH-SY5Y cells assessed as cell viability at 0.1 uM measured after 24 hrs by calcein-AM staining based fluorescence analysis; settings: read-out: Activity
SH-SY5Y [19] = assay: Inhibition of salsolinol-induced apoptosis in human SH-SY5Y cells assessed as appearance of necrotic cells along with early and late apoptotic cells at 10 uM measured after 24 hrs by AO/PIstaining based fluorescence microscopy; format: functional, cell-based
[20] = Inhibition of salsolinol-induced mPTP opening in human SH-SY5Y cells assessed as fold change in fluorescence intensity at 10 uM measured after 24 hrs by calcein AM/CoCl2 based fluorescence microscopic analysis (reference value: 0.49 +/-0.02); format: functional
[21] = Cytotoxicity against human SH-SY5Y cells assessed as cell viability at 1000 uM measured after 24 hrs by calcein-AM staining based fluorescence analysis; settings: read-out: Activity
SH-SY5Y [22] = assay: Neuroprotective activity against salsolinol-induced neurotoxicity in human SH-SY5Y cells assessed as cell death at 100 uM measured after 24 hrs by PI staining based analysis (reference value: 100%); format: functional
SH-SY5Y [23] = assay: Neuroprotective activity against salsolinol-induced neurotoxicity in human SH-SY5Y cells assessed as cell viability at 100 uM measured after 24 hrs by calcein-AM staining based fluorescence analysis (reference value: 70.49 +/-0.51%); format: functional; settings: read-out: Activity
[24] = Cytotoxicity against human SH-SY5Y cells assessed as cell viability at 100 uM measured after 24 hrs by calcein-AM staining based fluorescence analysis; settings: read-out: Activity
[25] = Inhibition of salsolinol-induced mPTP opening in human SH-SY5Y cells assessed as fold change in fluorescence intensity at 1000 uM measured after 24 hrs by calcein AM/CoCl2 based fluorescence microscopic analysis (reference value: 0.49 +/-0.02); format: functional
SH-SY5Y [26] = assay: Inhibition of salsolinol-induced apoptosis in human SH-SY5Y cells assessed as appearance of necrotic cells along with early and late apoptotic cells at 1000 uM measured after 24 hrs by AO/PIstaining based fluorescence microscopy; format: functional, cell-based
SH-SY5Y [27] = assay: Neuroprotective activity against salsolinol-induced neurotoxicity in human SH-SY5Y cells assessed as cell death at 1000 uM measured after 24 hrs by PI staining based analysis (reference value: 100%); format: functional
SH-SY5Y [28] = assay: Neuroprotective activity against salsolinol-induced neurotoxicity in human SH-SY5Y cells assessed as cell viability at 1000 uM measured after 24 hrs by calcein-AM staining based fluorescence analysis (reference value: 70.49 +/-0.51%); format: functional; settings: read-out: Activity
[29] = Inhibition of salsolinol-induced mitochondrial depolarization in human SH-SY5Y cells assessed as mitochondrial membrane potential at 1000 uM measured after 24 hrs by JC-1 staining based flow cytometry (reference value: 45.3 +/-2.09%); format: functional; set-up: scale not given: the % may be the effect or the level left
[30] = Inhibition of salsolinol-induced mitochondrial depolarization in human SH-SY5Y cells assessed as mitochondrial membrane potential at 100 uM measured after 24 hrs by JC-1 staining based flow cytometry (reference value: 45.3 +/-2.09%); format: functional; set-up: scale not given: the % may be the effect or the level left
SH-SY5Y [31] = assay: Inhibition of Salsolinol-induced oxidative stress in human SH-SY5Y cells assessed as reduction in superoxide radical formation at 1000 uM measured after 24 hrs by DHE staining based fluorescence microscopy; format: functional, cell-based
SH-SY5Y [32] = assay: Inhibition of salsolinol-induced apoptosis in human SH-SY5Y cells assessed as caspase 3/7 activity at 1000 uM incubated for 24 hrs using Ac-DEVD-AMC as substrate by fluorescence analysis (reference value: 100%); format: functional; set-up: scale not given: the % may be the effect or the level left
SH-SY5Y [33] = assay: Inhibition of Salsolinol-induced oxidative stress in human SH-SY5Y cells assessed as superoxide radical formation at 1000 uM measured after 24 hrs by DHE staining based fluorescence spectrophotometry (reference value: 100%); format: functional; set-up: scale not given: the % may be the effect or the level left
SH-SY5Y [34] = assay: Inhibition of Salsolinol-induced oxidative stress in human SH-SY5Y cells assessed as reduction in superoxide radical formation measured after 24 hrs by DHE staining based fluorescence spectrophotometry; format: functional, cell-based; settings: dose 10-1000 µM
SH-SY5Y [35] = assay: Neuroprotective activity against salsolinol-induced neurotoxicity in human SH-SY5Y cells assessed as reduction in cell death at 0.1 to 10 uM measured after 24 hrs by PI staining based analysis; format: functional; settings: dose 0.1-10 µM
SH-SY5Y [36] = assay: Inhibition of glutamate-induced oxidative stress in human SH-SY5Y cells assessed as reduction in superoxide radical formation at 10 uM measured after 4 hrs by DHE staining based fluorescence microscopy; format: functional, cell-based
SH-SY5Y [37] = assay: Neuroprotective activity against salsolinol-induced neurotoxicity in human SH-SY5Y cells assessed as cell death at 0.5 uM measured after 24 hrs by PI staining based analysis (reference value: 100%); format: functional
SH-SY5Y [38] = assay: Neuroprotective activity against salsolinol-induced neurotoxicity in human SH-SY5Y cells assessed as cell viability at 0.5 uM measured after 24 hrs by calcein-AM staining based fluorescence analysis (reference value: 70.49 +/-0.51%); format: functional; settings: read-out: Activity
SH-SY5Y [39] = assay: Inhibition of glutamate-induced apoptosis in human SH-SY5Y cells assessed as caspase 3/7 activity at 0.5 uM incubated for 1 hr using Ac-DEVD-AMC as substrate by fluorescence analysis (reference value: 100%); format: functional; set-up: scale not given: the % may be the effect or the level left
[40] = Inhibition of salsolinol-induced mPTP opening in human SH-SY5Y cells assessed as fold change in fluorescence intensity at 0.5 uM measured after 24 hrs by calcein AM/CoCl2 based fluorescence microscopic analysis (reference value: 0.49 +/-0.02); format: functional

Structure (SMILES): C=C(C(=O)OCc1cn([C@@H]2O[C@H](COC(C)=O)[C@@H](OC(C)=O)[C@H](OC(C)=O)[C@H]2OC(C)=O)nn1)[C@@H]1CC[C@]2(COC(C)=O)CC[C@]3(C)[C@H](CC[C@@H]4[C@@]5(C)CC[C@H](OC(C)=O)C(C)(C)[C@@H]5CC[C@]43C)[C@@H]12
- Activity [1]: 74.7%
- Activity (SH-SY5Y [2]): 90.9%
- viability at 24 h, 1 µM [3]: 138%
- Activity (SH-SY5Y [4]): 74.5%
- viability at 1 µM (SH-SY5Y [5]): 91.7%
- viability at 24 h, 10 µM [6]: 128%
- Activity (SH-SY5Y [7]): 75.1%
- Activity (SH-SY5Y [8]): 62.6%
- inhibition (SH-SY5Y [9]): Dose-Dependent Effect
- fold change (FC) [10]: 0.75
- Activity (SH-SY5Y [11]): Active
- Activity (SH-SY5Y [12]): 79.5%
- Activity [13]: 89.2%
- Activity (SH-SY5Y [14]): 82.2%
- Activity (SH-SY5Y [15]): 77.2%
- inhibition (SH-SY5Y [16]): Active
- Activity (SH-SY5Y [17]): 81.8%
- viability at 24 h, 0.1 µM [18]: 115%
- Activity (SH-SY5Y [19]): Active
- fold change (FC) [20]: 1.2

Structure (SMILES): CC(=O)N[C@@H](CS)C(=O)O [ACETYLCYSTEINE]
- viability at 24 h, 1000 µM [21]: 120%
- Activity (SH-SY5Y [22]): 72.5%
- viability at 100 µM (SH-SY5Y [23]): 82.3%
- viability at 24 h, 10 µM [6]: 108%
- viability at 24 h, 100 µM [24]: 114%
- fold change (FC) [25]: 0.76
- Activity (SH-SY5Y [26]): Active
- Activity (SH-SY5Y [27]): 68.2%
- viability at 1000 µM (SH-SY5Y [28]): 89%
- Activity [29]: 69.7%
- Activity [30]: 66.4%
- inhibition (SH-SY5Y [31]): Active
- Activity (SH-SY5Y [32]): 79.3%
- Activity (SH-SY5Y [33]): 53.8%
- inhibition (SH-SY5Y [34]): Dose-Dependent Effect

Structure (SMILES): C=C(Cn1cc(-c2cccnc2)nn1)[C@@H]1CC[C@]2(C(=O)O)CC[C@]3(C)[C@H](CC[C@@H]4[C@@]5(C)CC[C@H](O)C(C)(C)[C@@H]5CC[C@]43C)[C@@H]12
- viability at 24 h, 1 µM [3]: 116%
- viability at 1 µM (SH-SY5Y [5]): 81.7%
- viability at 24 h, 10 µM [6]: 133%
- Activity (SH-SY5Y [35]): inactive
- viability at 24 h, 0.1 µM [18]: 103%

Structure (SMILES): C=C(C(=O)OCc1cn([C@@H]2O[C@H](COC(C)=O)[C@H](OC(C)=O)[C@H](OC(C)=O)[C@H]2OC(C)=O)nn1)[C@@H]1CC[C@]2(COC(C)=O)CC[C@]3(C)[C@H](CC[C@@H]4[C@@]5(C)CC[C@H](OC(C)=O)C(C)(C)[C@@H]5CC[C@]43C)[C@@H]12
- viability at 24 h, 1 µM [3]: 139%
- viability at 1 µM (SH-SY5Y [5]): 90.9%
- viability at 24 h, 10 µM [6]: 130%
- Activity (SH-SY5Y [8]): 68.7%
- viability at 24 h, 0.1 µM [18]: 140%

Structure (SMILES): CC(=O)N(O)CCCCCNC(=O)CCC(=O)N(O)CCCCCNC(=O)CCC(=O)N(O)CCCCCN [DEFEROXAMINE]
- Activity (SH-SY5Y [2]): 77.4%
- Activity (SH-SY5Y [7]): 79.5%
- inhibition (SH-SY5Y [36]): inactive
- Activity (SH-SY5Y [14]): 87.2%

Structure (SMILES): C/C=C/C[C@@H](C)[C@@H](O)[C@H]1C(=O)N[C@@H](CC)C(=O)N(C)CC(=O)N(C)[C@@H](CC(C)C)C(=O)N[C@@H](C(C)C)C(=O)N(C)[C@@H](CC(C)C)C(=O)N[C@@H](C)C(=O)N[C@H](C)C(=O)N(C)[C@@H](CC(C)C)C(=O)N(C)[C@@H](CC(C)C)C(=O)N(C)[C@@H](C(C)C)C(=O)N1C [CYCLOSPORINE]
- Activity (SH-SY5Y [37]): 74.5%
- viability at 0.5 µM (SH-SY5Y [38]): 99.3%
- Activity (SH-SY5Y [39]): 89.1%
- fold change (FC) [40]: 0.67
